# Measured values as given in ChEMBL document CHEMBL1144883, “Design, synthesis, and SAR of potent and selective dipeptide-derived inhibitors for dipeptidyl peptidases” (J Med Chem, 2003).
# Experiments:
# Dipeptidyl peptidase 2 [1] = biological target: T1, Dipeptidyl peptidase 2 (Homo sapiens, UniProt Q9UHL4)
# Dipeptidyl peptidase 4 [2] = biological target: T2, Dipeptidyl peptidase 4 (Homo sapiens, UniProt P27487)
# Dipeptidyl peptidase 4 [3] = biological target: T2, Dipeptidyl peptidase 4; remark: listed apart in the source
# Dipeptidyl peptidase 2 [4] = biological target: T1, Dipeptidyl peptidase 2; remark: listed apart in the source
# Dipeptidyl peptidase 2 [5] = biological target: T1, Dipeptidyl peptidase 2; test: Inhibitory activity of compound against Dipeptidylpeptidase II (DPP II)
# T2 sequence (P27487 whole entry): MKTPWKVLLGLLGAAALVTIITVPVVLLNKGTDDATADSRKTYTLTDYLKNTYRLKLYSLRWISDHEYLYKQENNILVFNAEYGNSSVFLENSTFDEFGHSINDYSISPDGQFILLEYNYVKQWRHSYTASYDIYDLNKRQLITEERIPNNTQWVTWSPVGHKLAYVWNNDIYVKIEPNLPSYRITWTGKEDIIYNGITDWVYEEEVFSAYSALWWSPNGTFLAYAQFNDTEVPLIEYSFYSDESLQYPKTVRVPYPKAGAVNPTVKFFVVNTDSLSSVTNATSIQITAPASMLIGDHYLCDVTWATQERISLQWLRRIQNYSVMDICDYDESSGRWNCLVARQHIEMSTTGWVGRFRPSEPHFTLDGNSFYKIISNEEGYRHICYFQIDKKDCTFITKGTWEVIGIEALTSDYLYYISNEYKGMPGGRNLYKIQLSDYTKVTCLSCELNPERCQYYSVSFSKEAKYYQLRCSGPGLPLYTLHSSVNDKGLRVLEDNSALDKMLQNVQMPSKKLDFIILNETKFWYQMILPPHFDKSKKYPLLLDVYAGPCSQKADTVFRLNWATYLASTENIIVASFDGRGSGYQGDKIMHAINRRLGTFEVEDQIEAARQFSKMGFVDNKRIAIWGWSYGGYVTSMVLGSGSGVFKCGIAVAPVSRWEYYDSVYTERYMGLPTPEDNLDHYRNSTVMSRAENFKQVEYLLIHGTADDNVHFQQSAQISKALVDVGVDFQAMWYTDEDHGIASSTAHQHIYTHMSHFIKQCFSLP
Compound,IC50 (Dipeptidyl peptidase 2 [1]),IC50 (Dipeptidyl peptidase 4 [2]),IC50 (Dipeptidyl peptidase 4 [3]),IC50 (Dipeptidyl peptidase 2 [4]),IC50 (Dipeptidyl peptidase 2 [5])
O=C([C@@H]1CCCN1)N1CCCC1,> 500 µM,,,,
CCC(C)C(N)C(=O)N1CCC(F)C1 (stereo not drawn),111 µM,3.5 µM,,,
NCCCCC(N)C(=O)N1CCC(OC(=O)c2ccccc2)C1 (stereo not drawn),78.1 µM,> 1000 µM,,,
CCC(C)C(N)C(=O)N(C)CC (stereo not drawn),> 500 µM,167 µM,,,
N#CC1CCCCN1C(=O)C(N)CCCCN (stereo not drawn),1.5 µM,51 µM,,,
NCC[C@@H](N)C(=O)N1CCCCC1,130 µM,> 1000 µM,,,
NCCC[C@H](N)C(=S)N1CCCCC1,0.2 µM,> 1000 µM,,,
NCC[C@H](N)C(=S)N1CCCCC1,0.22 µM,> 1000 µM,,,
CCCCC(N)C(=O)N1CCCCC1 (stereo not drawn),32.4 µM,250 µM,,,
NCCC(N)C(=O)N1CCSC1 (stereo not drawn),0.14 µM,289 µM,,,
NCCCC(N)C(=O)N1CCSC1 (stereo not drawn),0.75 µM,81 µM,,,
NCCC(N)C(=O)N1CCOCC1 (stereo not drawn),0.51 µM,> 1000 µM,,,
CCC(C)C(N)C(=O)NC1CCCC1 (stereo not drawn),500 µM,> 1000 µM,,,
CCC(C)C(N)C(=O)N1CCC1 (stereo not drawn),730 µM,50.4 µM,,,
NCCCCC(N)C(=O)N1CCC1 (stereo not drawn),159 µM,500 µM,,,
NCCC(N)C(=O)N1CCCCC1 (stereo in doubt; 9.9),1.15 µM,500 µM,,,
CCCN(C)C(=O)C(N)C(C)CC (stereo not drawn),213 µM,377 µM,,,
O=C(C1CCCS1)N1CCCC1 (stereo not drawn),> 500 µM,> 500 µM,,,
N=C(N)NCCCC(N)C(=O)N1CCCCC1 (stereo not drawn),0.63 µM,18.1 µM,,,
NCCC(N)C(=O)N1CCCCC1 (stereo in doubt; 9.10),191 µM,> 1000 µM,,,
CCC(N)C(=O)N1CCCCC1 (stereo not drawn),88.7 µM,250 µM,,,
NCC(=O)N1CCCC1,> 1000 µM,,,,
NCCCCC(N)C(=O)N1CCCCCC1 (stereo not drawn),51.9 µM,> 1000 µM,,,
CCCC(N)C(=O)N1CCCCC1 (stereo not drawn),57.1 µM,229 µM,,,
NC(CO)C(=O)N1CCCCC1 (stereo not drawn),62 µM,67 µM,,,

Compound,IC50 (Dipeptidyl peptidase 2 [1]),IC50 (Dipeptidyl peptidase 4 [2]),IC50 (Dipeptidyl peptidase 4 [3]),IC50 (Dipeptidyl peptidase 2 [4]),IC50 (Dipeptidyl peptidase 2 [5])
NCCC(N)C(=O)N1CCCCC1 (stereo in doubt; 9.7),0.13 µM,> 1000 µM,,,
CCC(C)C(N)C(=O)N1CC=CC1 (stereo not drawn),288 µM,,,,
N#C[C@@H]1CCCN1C(=O)[C@@H](N)CCCCN,1 µM,0.32 µM,,,
NC(C(=O)N1CCCCC1)C1CCCCC1 (stereo not drawn),9.9 µM,217 µM,,,
CCC(C)C(N)C(=O)N1CC=CCC1 (stereo not drawn),52 µM,52 µM,,,
CCC(C)C(N)C(=O)N1CCCCC1 (stereo not drawn),59 µM,,,,
CCC(C)C(N)C(=O)N1CCC(N=[N+]=[N-])C1 (stereo not drawn),43 µM,107 µM,,,
NCC(N)C(=O)N1CCCCC1 (stereo not drawn),1.84 µM,> 1000 µM,,,
NCCCCC(N)C(=O)N1CCSC1 (stereo not drawn),3 µM,318 µM,318 µM,3 µM,
NCCC(N)C(=O)N1CCNCC1 (stereo not drawn),29.3 µM,> 1000 µM,,,
NCCCC[C@@H](N)C(=S)N1CCCCC1,0.49 µM,> 1000 µM,,,
NCCCCC(N)C(=O)N1CC=CCC1 (stereo not drawn),10.9 µM,> 500 µM,,,
NCCCC[C@H](N)C(=O)N1CCCCC1 (stereo in doubt; 9.5),2.1 µM,135 µM,,,
N#C[C@@H]1CCCCN1C(=O)C(N)CCN (stereo partly drawn),,151 µM,,,0.038 µM
NCCCCC(N)C(=O)N1CCC(O)C1 (stereo not drawn),48 µM,500 µM,,,
CCC(C)C(N)C(=O)N(C)C (stereo not drawn),> 1000 µM,360 µM,,,
N[C@@H](CC(=O)O)C(=O)N1CCCC1,> 500 µM,,,,
NCCCC[C@H](N)C(=O)N1CCCCC1 (stereo in doubt; 8.4),1.6 µM,247 µM,,,
CCC(C)C(N)C(=O)N1CCC(O)C1 (stereo not drawn),299 µM,93 µM,,,
O=C(CNC1CCCC1)NC(c1ccccc1)P(=O)(Oc1ccccc1)Oc1ccccc1 (stereo not drawn),,> 125 µM,,,
CCC(C)C(N)C(=O)N(CC)CC (stereo not drawn),> 500 µM,> 500 µM,,,
CCC(C)C(N)C(=O)N1CCCCCC1 (stereo not drawn),228 µM,374 µM,,,
CCC(C)C(N)C(=O)N1CCC(OC(=O)c2ccccc2)C1 (stereo not drawn),158 µM,> 500 µM,,,
[N-]=[N+]=NC1CCN(C(=O)C(N)CCCCN)C1 (stereo not drawn),4.9 µM,,,,
